Experimental data from the NIST ThermoML archive (doi:10.1016/j.fluid.2017.08.022).

Conditions: for mass density: 100 kPa, Liquid, Buoyancy - hydrostatic balance with magnetic suspension - one sinker

CCCCn1cc[n+](C)c1.[Cl-] [1-butyl-3-methylimidazolium chloride]
surface tension liquid-gas [mN/m]
Conditions | Ring tensiometer | Wilhelmy Plate
303.11 K | 50.32 | –
308.23 K | – | 49.64
308.27 K | 50.3 | –
313.06 K | – | 49.26
313.07 K | 49.73 | –
318.04 K | 49.68 | –
318.07 K | – | 48.97
323.1 K | 49.23 | 48.58
327.9 K | – | 48.24
327.96 K | 48.8 | –
333.82 K | – | 47.81
333.85 K | 48.35 | –
338.23 K | 48.24 | –
338.28 K | – | 47.55
342.85 K | 47.76 | –
343.23 K | – | 47.16
348.79 K | 47.38 | –
348.85 K | – | 46.9
353.81 K | – | 46.5
353.87 K | 47.16 | –
357.26 K | – | 46.29
357.34 K | 46.88 | –
364.83 K | 46.46 | –
364.9 K | – | 45.76

Conditions | mass density [kg/m3]
313.05 K | 1073.4
318.21 K | 1070.57
323.11 K | 1067.9
328.37 K | 1065.5
334.27 K | 1062.01
338.89 K | 1059.46
343.88 K | 1056.78
349.01 K | 1054.21
353.91 K | 1051.34
357.34 K | 1049.12
364.78 K | 1044.98

CCCCCCCCCCn1cc[n+](C)c1.[Cl-] [1-decyl-3-methylimidazolium chloride]
Conditions | surface tension liquid-gas [mN/m]
317.84 K, Ring tensiometer | 27.09
323.12 K, Wilhelmy Plate | 26.44
323.14 K, Ring tensiometer | 26.85
328.25 K, Wilhelmy Plate | 26.12
328.26 K, Ring tensiometer | 26.45
333.1 K, Wilhelmy Plate | 25.87
333.13 K, Ring tensiometer | 26.14
338.32 K, Wilhelmy Plate | 25.57
338.37 K, Ring tensiometer | 25.54
342.9 K, Wilhelmy Plate | 25.37
342.95 K, Ring tensiometer | 25.7
348.09 K, Wilhelmy Plate | 25.15
348.13 K, Ring tensiometer | 25.61
353.32 K, Wilhelmy Plate | 24.85
353.33 K, Ring tensiometer | 24.76
358.44 K, Wilhelmy Plate | 24.59
358.57 K, Ring tensiometer | 24.5

Conditions | mass density [kg/m3]
317.88 K | 973.64
323.19 K | 970.69
328.33 K | 968.07
333.2 K | 964.94
338.44 K | 962.23
343.26 K | 958.59
348.19 K | 956.59
353.38 K | 953.42
358.17 K | 950.62
363.44 K | 947.62

CCn1cc[n+](C)c1.[Cl-] [1-ethyl-3-methylimidazolium chloride]
Conditions | mass density [kg/m3]
313.38 K | 1134.76
318.3 K | 1132.06
323.25 K | 1129.33
328.1 K | 1126.5
333.15 K | 1124.02
338.1 K | 1120.96
342.86 K | 1118.28
347.66 K | 1115.32
353.21 K | 1112.21
359.06 K | 1109.07
364.85 K | 1106.29

surface tension liquid-gas [mN/m]
Conditions | Ring tensiometer | Wilhelmy Plate
333.2 K | 62.56 | 62.6
338.15 K | 62.12 | –
338.24 K | – | 62.26
343.38 K | 62.16 | 61.82
348.57 K | – | 61.51
348.58 K | 61.59 | –
353.3 K | 61.45 | –
353.32 K | – | 61.1
358.44 K | 60.8 | –
358.5 K | – | 60.64
364.76 K | 60.05 | –
364.96 K | – | 60.2

CCCCCCn1cc[n+](C)c1.[Cl-] [1-hexyl-3-methylimidazolium chloride]
surface tension liquid-gas [mN/m]
Conditions | Ring tensiometer | Wilhelmy Plate
303.19 K | 39.83 | –
303.22 K | – | 39.37
308.21 K | – | 39.15
308.22 K | 39.58 | –
312.93 K | – | 38.95
312.95 K | 39.37 | –
318.33 K | 39.1 | 38.69
323.1 K | – | 38.45
323.12 K | 38.84 | –
328.18 K | – | 38.17
328.2 K | 38.54 | –
333.27 K | – | 37.94
333.31 K | 38.3 | –
338.68 K | – | 37.66
338.71 K | 37.97 | –
343.01 K | – | 37.44
343.06 K | 37.74 | –
348.1 K | – | 37.16
348.15 K | 37.52 | –
353.53 K | – | 36.93
353.63 K | 37.19 | –
358.12 K | – | 36.68
358.24 K | 37 | –
363.07 K | – | 36.42
363.17 K | 36.72 | –

Conditions | mass density [kg/m3]
303.22 K | 1035.05
308.25 K | 1032.18
313 K | 1029.5
318.38 K | 1026.54
323.18 K | 1023.64
328.31 K | 1020.97
333.34 K | 1017.64
338.73 K | 1014.46
343.06 K | 1011.76
348.19 K | 1009.28
353.71 K | 1006.44
358.14 K | 1004
363.17 K | 1001.49

CCC[n+]1ccn(C)c1.[Cl-] [1-methyl-3-propylimidazolium chloride]
surface tension liquid-gas [mN/m]
Conditions | Ring tensiometer | Wilhelmy Plate
308.21 K | 56.7 | –
313.04 K | – | 55.61
313.07 K | 56.45 | –
318.32 K | 56.27 | –
318.34 K | – | 55.41
323.54 K | 55.92 | 54.98
328.41 K | – | 54.7
328.46 K | 55.49 | –
333.49 K | – | 54.42
333.5 K | 55.37 | –
337.95 K | – | 54.09
338 K | 54.98 | –
343.39 K | – | 53.8
343.45 K | 54.58 | –
348.34 K | – | 53.59
348.39 K | 54.3 | –
353.07 K | – | 53.29
353.11 K | 54.07 | –
358.45 K | – | 52.95
358.5 K | 53.69 | –
363.91 K | 53.27 | –
364.37 K | – | 52.57

Conditions | mass density [kg/m3]
308.26 K | 1103.45
313.1 K | 1100.71
318.25 K | 1097.5
323.58 K | 1094.84
328.52 K | 1091.95
333.54 K | 1089.17
338.03 K | 1086.64
343.46 K | 1083.12
348.39 K | 1080.73
353.12 K | 1078.37
358.51 K | 1075.69
363.89 K | 1071.76

Cl.Cn1ccnc1 [1-methylimidazolium chloride]
Conditions | mass density [kg/m3]
333.65 K | 1195.33
338.68 K | 1192.04
343.7 K | 1187.98
347.72 K | 1186.51
353.06 K | 1184.13
359.06 K | 1180.78
363.86 K | 1177.41

surface tension liquid-gas [mN/m]
Conditions | Ring tensiometer | Wilhelmy Plate
333.66 K | 67.02 | –
333.67 K | – | 66.84
338.7 K | 66.37 | 66.5
343.19 K | – | 66.13
343.24 K | 66.48 | –
348.1 K | 66.18 | –
348.11 K | – | 65.78
352.35 K | – | 65.4
352.38 K | 65.96 | –
359.12 K | 65.47 | –
359.17 K | – | 64.87
363.94 K | 65.12 | –
364 K | – | 64.58
